# Measurements reported in patent US6465526B1, “Natural mixture composed of higher primary aliphatic alcohols obtained from bee wax for the treatment of gastric and duodenal ulcers that also present antiinflamatory activity” (Laboratories Dalmer SA, priority 1994, dated 2002).
# Marks after values point to notes of the source that are not given here.
# Experiments:
# Format in all cases: in vivo, Sprague Dawley rats
# [1] = system: pleuresy induced by carragenine; assay: pleuresy induced by carragenine; details: for Exudate volume: 1 h before carragenine, 5 h
# Description: Pleuresy by carragenine: Male Sprague Dawley rats were used (200-250 g) and adapted to laboratory conditions for 15 days with water and food ad libitum and were deprived of food 12 h previous to the experiment. M.H.A.A.B.W. was administered in a 10 mg/mL acacia gum/water suspension, as well as triacontanol, while indomethacine was dissolved in 5% sodium bicarbonate.
# All the treatments were administered using gastric gavage one hour previous to the injection of carragenine. Rats were randomly distributed in the following experimental groups: 1) control (vehicle); 2, 3 and 4) M.H.A.A.B.W. at 25, 50 and 100 mg/kg respectively; 5) triacontanol at 50 mg/kg and 6) indomethacine at 10 mg/kg.
# For the induction of the edema, rats were anesthesized with ether and 0.3 mL of carragenine in 1% of saline solution were injected in the pleural cavity. Five hours later, the animals were sacrificed and the exudate were colected, determining its volume. The percent of inhibition of the edema is calculated using the following formula:
# Inhibition (%)=1−(VT)/(VC)×100
# VT=volume of the edema of treated animals
# VC=volume of the edema of control animals
# [2] = system: gastric ulcer induced by alcohol (60%) and indometacine (10 mg/kg); assay: gastric ulcer induced by alcohol (60%) and indometacine (10 mg/kg)
# Description: The objective of the present work is to determine if the protective effect of […]. against ulcer is dependent of prostaglandins or not. Male Sprague Dawley rats, weighting 150 to 200 g, were adapted to laboratory conditions for 7 days with water and food ad libitum, up to 48 h previous to the experiment, where food is suppressed. The animals were randomly distributed in 4 experimental groups. […]. was administered intraperitoneally in a 2% Tween 20/water suspension, cimetidine was dissolved in hot water and indomethacine in 5% sodium bicarbonate. […] […] after the animals were injected by i.p. route indomethacine was administered at 10 mg/kg by subcutaneous route. Half an hour later, was administered 60% alcohol and, an hour later, the animals were sacrificed. The stomachs were extracted, opened by the bigger curvature and measured the size of the ulcer using a 3× enlargement. Results were expressed in […]. In all cases, the comparison between the treated groups and the control one was realized using the non parametric U de Mann Whitney test.
# cotton granule = assay: model of cotton granule; details: 3 mg/kg orally, 6 days
# Description: In order to corroborate the antiinflamatory effect of the […]. are used the pleuresy induced by carragenine and the granule by cotton models, those ones that constitute established models for the evaluation of antiinflamatory drugs. Granule by cotton: Male Sprague Dawley rats, weighing 200 to 250 g, were adapted to laboratory conditions in the same way as the last experiment. […]. was administered orally in a 2% Tween 20/water suspension, while administered orally in a 5% sodium bicarbonate. […] Rats were randomly distributed in 5 experimental groups: 1) control (vehicle); 2, 3, and 4) […]. at 25, 50 and 100 mg/kg respectively and 5) indomethacine at 3 mg/kg. Rats were, previously, anaesthetized with ether, doing an incision in the dorsal region. The […] cotton pellet of 50 mg was sub-cutaneously and applied with a local […] finally the injured is closed. […] The percent of inhibition was […] taking as reference the weight of the granule formed in the control group.
# acid gastric secretion = assay: gastric acidity in the model of pilorous ligatured; details: 4 h after pilorous ligature
# Description: The results obtained in last examples sugest an action over ulcer induced by acid compounds dependent or independent. With the objective of discard the inhibitory effect over the inhibition of the acid gastric secretion was determined the action of […]. over this acid gastric secretion in the pilorous ligature model. Female Sprague Dawley rats, weighing 150 to 200 g were adapted to laboratory conditions for 15 days with water and food ad libitum. The animals were randomly distributed in different experimental groups and food was deprived 48 h previous to the ligature. […]. was administered intraperitoneally in a 2% Tween 20/water suspension. Cimetidine was dissolved in hot water and administered by the same route as […]. […] Rats were anaesthetized with ether and an incision, in the abdominal region was done, stomachs were extracted and pilorous were ligatured with thread. […], after that, the compound was administered by i.p. route and 3 mL of saline solution were injected by subcutaneous route. Four h later, the animals were sacrificed, intact stomachs were extracted, tweezed by the esophagus. The gastric content was centrifuged at 3000 min^-1 for 10 min and, later on, the volume was measured. The acidity of the gastric juice was measured using 0.1 mol/L NaOH and phenolphtalein as indicator. The comparison between the treated groups and the control one was realized using the non parametric U de Mann Whitney test.
# [3] = 25 mg/kg i.p., indomethacine 10 mg/kg s.c. + 60% alcohol
smiles,measurement,setting,value
"COc1ccc2c(c1)c(CC(=O)O)c(C)n2C(=O)c1ccc(Cl)cc1 [Indometacine, indomethacine]",Inhibition,[1]; 10 mg/kg oral,59.6%
same,Exudate volume,[1]; 10 mg/kg oral,0.50 ± 0.15 mL
same,Ulcer,"[2]; indometacine alone (10 mg/kg s.c.), no alcohol",0 mm
same,Inhibition,cotton granule,69.3%
same,Weight of granule,cotton granule,79 + 0.02 ** mg.
"CCCCCCCCCCCCCCCCCCCCCCCCCCCCCCO [Triacontanol, 1-triacontanol]",Inhibition,[1]; 100 mg/kg oral (maximum dose assayed),27.4%
same,Exudate volume,[1]; 100 mg/kg oral,0.96 ± 0.30 mL
"CN/C(=N/CCSCc1nc[nH]c1C)NC#N [Cimetidine, cimetidine]",Inhibition,[2]; [3],71.2%
same,Ulcer,[2]; [3],14.6 +/− 5.64* mm
same,Acidity,acid gastric secretion; 25 mg/kg i.p.,"0,080 +/− 0,009* meq H^+/mL"
same,Gastric juice volume,acid gastric secretion; 25 mg/kg i.p.,"5,87 +/− 0,63* mL"
same,Acidity,acid gastric secretion; 50 mg/kg i.p.,"0,083 +/− 0,006** meq H^+/mL"
same,Gastric juice volume,acid gastric secretion; 50 mg/kg i.p.,"5,83 +/− 0,38** mL"
